Experiment: Compound extraction (loss) from PBS buffer by PDMS coating, UV-VIS at 260 nm
Format: physicochemical
Conditions: 200 μL of 200 μM Nefazodone-PBS, 24 hours, less than 0.8 mg of PDMS in 200 μL PBS (volume ratio PDMS to buffer less than 1/250)
Method: Nefazodone is a small hydrophobic compound that can be readily extracted from aqueous buffer by PDMS following a partition function rule, which means the loss of Nefazodone […] with the amount of PDMS present in a given volume of buffer. In order to determine the safe quantity of PDMS for use with 200 μL of PBS buffer, 200 μL of a 200 μM Nefazodone-PBS solution was incubated in wells (formed generally as described above in EXAMPLE 4) containing varying PDMS coating amounts from 0.005 mg to 4 mg per well for 24 hours. After 24 hours the Nefazodone that remained in the PBS buffer was measured by UV-VIS adsorption at 260 nm. The results shown in FIG. 11 indicate that the loss of Nefazodone is negligible in the presence of less than 0.8 mg of PDMS in 200 μL of PBS buffer (meaning volume ratio of PDMS to buffer is less than 1/250).

CCc1nn(CCCN2CCN(c3cccc(Cl)c3)CC2)c(=O)n1CCOc1ccccc1 [Nefazodone]
loss of Nefazodone from PBS buffer: negligible

Reference: patent US20140141503A1, “CELL CULTURE SUBSTRATE HAVING UNIFORM SURFACE COATING” (Corning Incorporated, priority 2012, published 2014)
